Earlier results in patent US20020146694A1, “Functionating genomes with cross-species coregulation” (priority 2001, published 2002).

Test system: wild type yeast cells
Details: 10 micrograms/ml

In the case of `C[C@H]1c2cccc(O)c2C(=O)C2=C(O)[C@]3(O)C(=O)C(C(N)=O)=C(O)[C@@H](N(C)C)[C@@H]3[C@@H](O)[C@@H]21` [doxycycline], the “effect on the growth rate” value is given as “no significant effect”.
